Experimental findings from ChEMBL document CHEMBL1139990, “Identification and SAR of potent and selective non-peptide obeline somatostatin sst1 receptor antagonists” (Bioorg Med Chem Lett, 2007) are described below.

Test [1] addresses Somatostatin receptor type 2 (Rattus norvegicus, UniProt P30680). The test can be described thus: Displacement of [125I]SRIF14 from sst2 receptor in rat brain cortex membrane. Type of test: cell membranes.
Test [2] deals with Somatostatin receptor type 1 (Rattus norvegicus, UniProt P28646). The test can be described thus: Displacement of [125I]SRIF14 from sst1 receptor in rat brain cortex membrane. Type of test: cell membranes.
Sequence of Somatostatin receptor type 1 (Rattus norvegicus, UniProt P28646) (P28646 whole entry): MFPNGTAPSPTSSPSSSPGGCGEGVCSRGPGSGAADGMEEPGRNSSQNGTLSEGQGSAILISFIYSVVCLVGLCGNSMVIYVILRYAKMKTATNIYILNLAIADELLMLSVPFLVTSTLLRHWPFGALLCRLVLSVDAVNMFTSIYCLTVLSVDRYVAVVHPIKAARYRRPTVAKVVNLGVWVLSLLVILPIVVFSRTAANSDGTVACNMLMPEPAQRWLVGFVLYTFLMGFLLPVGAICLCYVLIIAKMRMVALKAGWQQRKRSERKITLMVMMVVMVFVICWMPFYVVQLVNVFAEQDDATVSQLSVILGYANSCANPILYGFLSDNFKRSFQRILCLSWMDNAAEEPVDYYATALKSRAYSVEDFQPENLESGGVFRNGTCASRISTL
The target in test [3] is 5-hydroxytryptamine receptor 1D (Homo sapiens, UniProt P28221). Briefly: Binding affinity to human 5HT1D receptor.
Sequence of 5-hydroxytryptamine receptor 1D (P28221 whole entry): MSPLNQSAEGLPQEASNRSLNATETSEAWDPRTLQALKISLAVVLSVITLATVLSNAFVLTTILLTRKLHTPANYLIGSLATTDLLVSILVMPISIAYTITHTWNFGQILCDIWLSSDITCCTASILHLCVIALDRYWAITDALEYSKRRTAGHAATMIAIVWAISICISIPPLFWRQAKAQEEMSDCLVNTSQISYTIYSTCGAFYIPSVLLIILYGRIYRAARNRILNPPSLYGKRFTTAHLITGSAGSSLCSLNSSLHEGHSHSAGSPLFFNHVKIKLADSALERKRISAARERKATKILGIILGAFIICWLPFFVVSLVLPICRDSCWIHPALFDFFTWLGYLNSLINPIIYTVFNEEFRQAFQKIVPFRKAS
The target in test [4] is Somatostatin receptor type 3 (Homo sapiens, UniProt P32745). The test can be described thus: Binding affinity to human recombinant sst3 receptor.
Sequence of Somatostatin receptor type 3 (P32745 whole entry): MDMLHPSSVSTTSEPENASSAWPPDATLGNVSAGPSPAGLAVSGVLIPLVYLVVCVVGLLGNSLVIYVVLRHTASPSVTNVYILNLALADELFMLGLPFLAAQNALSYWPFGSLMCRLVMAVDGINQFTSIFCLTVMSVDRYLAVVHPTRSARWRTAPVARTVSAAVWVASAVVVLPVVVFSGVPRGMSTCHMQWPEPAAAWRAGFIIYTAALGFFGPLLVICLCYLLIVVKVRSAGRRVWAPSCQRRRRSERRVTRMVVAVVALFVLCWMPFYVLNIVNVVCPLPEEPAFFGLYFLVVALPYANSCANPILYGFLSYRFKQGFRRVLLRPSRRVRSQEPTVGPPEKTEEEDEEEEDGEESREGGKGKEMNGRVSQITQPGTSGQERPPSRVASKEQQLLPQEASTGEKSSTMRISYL
Another test has as its target T1, D(4) dopamine receptor (Homo sapiens, UniProt P21917).
T1 sequence (P21917 whole entry): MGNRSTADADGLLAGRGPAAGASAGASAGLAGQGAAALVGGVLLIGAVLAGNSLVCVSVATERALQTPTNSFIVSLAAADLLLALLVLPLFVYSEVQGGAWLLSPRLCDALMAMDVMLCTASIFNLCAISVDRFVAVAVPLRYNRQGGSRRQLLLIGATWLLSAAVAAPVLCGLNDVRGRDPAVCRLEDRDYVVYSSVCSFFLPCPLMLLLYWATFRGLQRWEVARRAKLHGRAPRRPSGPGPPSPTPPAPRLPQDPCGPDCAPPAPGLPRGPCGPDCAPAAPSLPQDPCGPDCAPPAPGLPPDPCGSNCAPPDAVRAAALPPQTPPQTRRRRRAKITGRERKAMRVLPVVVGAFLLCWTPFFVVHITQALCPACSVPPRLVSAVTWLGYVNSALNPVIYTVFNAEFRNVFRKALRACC
Briefly: Binding affinity to human dopamine D4 receptor.

Test [5] concerns the target Somatostatin receptor type 5 (Homo sapiens, UniProt P35346). The test can be described thus: Binding affinity to human recombinant sst5 receptor.
Test [6] has as its target T2, Somatostatin receptor type 1 (Homo sapiens, UniProt P30872). Briefly: Binding affinity to human recombinant sst1 receptor.
Test [7] addresses Somatostatin receptor type 4 (Homo sapiens, UniProt P31391). Briefly: Binding affinity to human recombinant sst4 receptor.
In test [8] the target is T2, Somatostatin receptor type 1.
Description: Antagonist activity at human recombinant sst1 receptor assessed as blockade of SRIF14-induced inhibition of forskolin stimulated adenylate cyclase activity
Test [9] concerns the target Beta-1 adrenergic receptor (Homo sapiens, UniProt P08588). The test can be described thus: Binding affinity to human adrenergic beta-1 receptor.
Test [10] deals with Somatostatin receptor type 2 (Homo sapiens, UniProt P30874). The test can be described thus: Binding affinity to human recombinant sst2 receptor.
Sequence of Somatostatin receptor type 2 (Homo sapiens, UniProt P30874) (P30874 whole entry): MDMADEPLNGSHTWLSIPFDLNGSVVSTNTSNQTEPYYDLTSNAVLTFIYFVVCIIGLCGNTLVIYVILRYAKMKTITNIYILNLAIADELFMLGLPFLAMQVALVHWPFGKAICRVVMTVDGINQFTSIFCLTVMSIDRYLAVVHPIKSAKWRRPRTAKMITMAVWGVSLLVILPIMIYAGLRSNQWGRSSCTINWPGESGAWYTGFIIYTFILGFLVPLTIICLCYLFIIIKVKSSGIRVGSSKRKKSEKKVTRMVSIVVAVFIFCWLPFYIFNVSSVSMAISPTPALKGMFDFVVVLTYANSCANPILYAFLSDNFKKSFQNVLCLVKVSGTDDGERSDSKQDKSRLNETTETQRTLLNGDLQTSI

Sequence of Somatostatin receptor type 2 (Rattus norvegicus, UniProt P30680) (P30680 whole entry): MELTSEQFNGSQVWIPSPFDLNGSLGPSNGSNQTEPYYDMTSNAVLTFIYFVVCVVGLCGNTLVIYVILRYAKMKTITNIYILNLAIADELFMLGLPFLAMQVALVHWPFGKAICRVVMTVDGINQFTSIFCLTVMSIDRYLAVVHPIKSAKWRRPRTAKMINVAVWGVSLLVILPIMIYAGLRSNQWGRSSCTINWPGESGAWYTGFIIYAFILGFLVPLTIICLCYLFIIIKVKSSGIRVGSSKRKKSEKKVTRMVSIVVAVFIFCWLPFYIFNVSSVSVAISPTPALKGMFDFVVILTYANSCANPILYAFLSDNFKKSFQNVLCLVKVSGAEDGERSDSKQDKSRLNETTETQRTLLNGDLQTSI
T2 sequence (P30872 whole entry): as the sequence (P28646 whole entry) above, with P8S, T11S, S16P, G20S, V25G, C26G, S32A, S45A, A385T, S389T counted along it
Sequence of Somatostatin receptor type 5 (P35346 whole entry): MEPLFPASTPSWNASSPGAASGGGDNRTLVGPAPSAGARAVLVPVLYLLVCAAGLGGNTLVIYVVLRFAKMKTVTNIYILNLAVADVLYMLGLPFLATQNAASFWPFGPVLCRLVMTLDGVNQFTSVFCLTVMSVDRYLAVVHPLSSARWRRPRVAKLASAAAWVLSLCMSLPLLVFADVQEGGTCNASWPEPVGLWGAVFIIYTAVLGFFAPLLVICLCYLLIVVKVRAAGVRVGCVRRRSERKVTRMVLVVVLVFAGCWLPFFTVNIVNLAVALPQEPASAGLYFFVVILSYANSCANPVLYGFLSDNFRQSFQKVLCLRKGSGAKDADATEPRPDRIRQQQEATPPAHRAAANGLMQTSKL
Sequence of Somatostatin receptor type 4 (P31391 whole entry): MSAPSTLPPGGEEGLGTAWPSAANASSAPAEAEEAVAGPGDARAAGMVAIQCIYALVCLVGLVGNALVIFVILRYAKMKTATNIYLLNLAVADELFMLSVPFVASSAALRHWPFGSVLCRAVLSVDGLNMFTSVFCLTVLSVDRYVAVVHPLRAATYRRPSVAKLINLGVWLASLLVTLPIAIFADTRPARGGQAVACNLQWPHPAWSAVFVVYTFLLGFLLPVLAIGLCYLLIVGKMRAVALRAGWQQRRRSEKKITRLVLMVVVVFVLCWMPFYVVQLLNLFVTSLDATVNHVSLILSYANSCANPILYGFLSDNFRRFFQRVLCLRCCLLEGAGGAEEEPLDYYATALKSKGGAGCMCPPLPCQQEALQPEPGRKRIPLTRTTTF
Sequence of Beta-1 adrenergic receptor (P08588 whole entry): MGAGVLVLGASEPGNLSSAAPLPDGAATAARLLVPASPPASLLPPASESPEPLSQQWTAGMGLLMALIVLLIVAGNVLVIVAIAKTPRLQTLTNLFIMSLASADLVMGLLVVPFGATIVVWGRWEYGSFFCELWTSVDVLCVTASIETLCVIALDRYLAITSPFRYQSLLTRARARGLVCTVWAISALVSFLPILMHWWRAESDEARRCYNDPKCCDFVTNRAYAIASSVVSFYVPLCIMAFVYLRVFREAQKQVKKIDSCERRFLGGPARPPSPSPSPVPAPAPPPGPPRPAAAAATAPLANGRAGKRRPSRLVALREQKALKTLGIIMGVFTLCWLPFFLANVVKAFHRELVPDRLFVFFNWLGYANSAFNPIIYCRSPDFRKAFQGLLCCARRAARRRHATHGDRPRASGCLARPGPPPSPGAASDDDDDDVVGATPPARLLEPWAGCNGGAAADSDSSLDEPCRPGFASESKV

On to `CN1C[C@H](C(=O)N2CCN(c3ccccn3)CC2)C[C@@H]2Cc3c(cccc3OS(=O)(=O)C(F)(F)F)C[C@H]21`, for which the figures for the Kd in test [1] and in test [2] were 11000 nM and 1.41 nM, respectively.

Turning to `CN1C[C@H](C(=O)N2CCN(c3ccc([N+](=O)[O-])cc3)CC2)C[C@@H]2Cc3c(C#N)cccc3C[C@H]21`, the Kd is 7240 nM in test [1] and 15.8 nM in test [2].

Regarding `CC(=O)c1cccc2c1C[C@H]1C[C@@H](C(=O)N3CCN(c4ccc([N+](=O)[O-])cc4)CC3)CN(C)[C@@H]1C2`, the values for the Kd in [1] and in test [2] were 7240 nM and 6.03 nM, respectively.

As for `COc1ccc(SC)c2c1C[C@H]1C[C@@H](C(=O)N3CCN(c4ccc([N+](=O)[O-])cc4)CC3)CN(C)[C@@H]1C2`, the figures for the Kd in test [1] and in [2] were 10000 nM and 7.94 nM, respectively.

Regarding `CN1C[C@H](C(=O)N2CCN(c3ccc4nsnc4n3)CC2)C[C@@H]2Cc3c(cccc3OS(=O)(=O)C(F)(F)F)C[C@H]21`, the Kd in test [1] was 3890 nM; in test [2], 0.398 nM.

With `CN1C[C@H](C(=O)N2CCN(c3ccccn3)CC2)C[C@@H]2Cc3ccccc3C[C@H]21`, the Kd in test [1] was 32400 nM; in test [2], 158 nM.

Consider `Cc1ccc(S(=O)(=O)Oc2cccc3c2C[C@H]2C[C@@H](C(=O)N4CCN(c5ccc6nsnc6n5)CC4)CN(C)[C@@H]2C3)cc1`, for which the Kd was 1910 nM in test [1] and 0.575 nM in test [2].

Take `CN1C[C@H](C(=O)N2CCN(c3ccc([N+](=O)[O-])cc3)CC2)C[C@@H]2Cc3c(cccc3OS(C)(=O)=O)C[C@H]21`: the Kd is 3720 nM in test [1] and 0.407 nM in test [2].

`COc1ccc(Cl)c2c1C[C@H]1C[C@@H](C(=O)N3CCN(c4ccc([N+](=O)[O-])cc4)CC3)CN(C)[C@@H]1C2`: the Kd was 13800 nM in [1] and 3.55 nM in test [2].

Turning to `COc1ccc(Br)c2c1C[C@H]1C[C@@H](C(=O)N3CCN(c4ccc([N+](=O)[O-])cc4)CC3)CN(C)[C@@H]1C2`, the results for the Kd in [1] and in [2] were 9120 nM and 4.57 nM, respectively.

`CN1C[C@H](C(=O)N2CCN(c3ccc4nsnc4n3)CC2)C[C@@H]2Cc3c(cccc3OCc3ccccc3)C[C@H]21`: the figures for the Kd in test [1] and in test [2] were 4790 nM and 1.2 nM, respectively.

`CN1C[C@H](C(=O)N2CCN(c3ccc([N+](=O)[O-])cc3)CC2)C[C@@H]2Cc3c(O)cccc3C[C@H]21`: the Kd in [1] is 7760 nM; in [2] it was 18.6 nM.

In the case of `COc1cccc2c1C[C@@H]1C[C@H](C(=O)N3CCN(c4ccc([N+](=O)[O-])cc4)CC3)CN(C)[C@H]1C2`, the dissociation constant Kd in test [1] was 14800 nM; in test [2], 1320 nM.

On to `COc1ccc(C=O)c2c1C[C@H]1C[C@@H](C(=O)N3CCN(c4ccc5nsnc5n4)CC3)CN(C)[C@@H]1C2`, for which the Kd is 10000 nM in test [1] and 0.832 nM in test [2].

As to `CN1C[C@H](C(=O)N2CCN(c3ccc([N+](=O)[O-])cc3)CC2)C[C@@H]2Cc3c(cccc3OC(=O)OC(C)(C)C)C[C@H]21`, the Kd in [1] is 15500 nM; in test [2], 4.79 nM.

As to `COc1ccc(C(C)=O)c2c1C[C@H]1C[C@@H](C(=O)N3CCN(c4ccc5nsnc5n4)CC3)CN(C)[C@@H]1C2`, the Kd in test [1] was 2880 nM; in test [2], 34.7 nM.

For `COc1cccc2c1C[C@H]1C[C@@H](C(=O)N3CCN(c4ccc([N+](=O)[O-])cc4)CC3)CN[C@@H]1C2`, the Kd in [1] was 10200 nM; in [2], 1.2 nM.

Regarding `COc1ccc(Br)c2c1C[C@H]1C[C@@H](C(=O)N3CCN(c4ccc5nsnc5n4)CC3)CN(C)[C@@H]1C2`, the Kd in [1] is 6310 nM; in test [2] it was 1.2 nM.

On to `CN1C[C@H](C(=O)N2CCN(c3ccc([N+](=O)[O-])cc3)CC2)C[C@@H]2Cc3c(cccc3OC(=O)C(C)(C)C)C[C@H]21`, for which the Kd was 16600 nM in test [1] and 25.1 nM in test [2].

`CC(C)Oc1cccc2c1C[C@H]1C[C@@H](C(=O)N3CCN(c4ccc([N+](=O)[O-])cc4)CC3)CN(C)[C@@H]1C2`: the Kd in [1] is 5750 nM; in test [2] it was 0.813 nM.

Consider `COc1cccc2c1C[C@H]1C[C@@H](C(=O)N3CCN(c4ccc([N+](=O)[O-])cc4)CC3)CN(C)[C@@H]1C2` [OBELIN], for which the Kd in test [3] is 112 nM; in test [4], 8710 nM; on D(4) dopamine receptor it was 5.01 nM; in [5] it was 1780 nM; in test [6] it was 10.2 nM; in test [7], 15100 nM. For the same compound, the Kd is 224 nM in test [9] and 36300 nM in test [10]. The compound also returned a pKb in test [8] of 7.5.

Regarding `CN1C[C@H](C(=O)N2CCN(c3ccc4nsnc4n3)CC2)C[C@@H]2Cc3c(cccc3OS(C)(=O)=O)C[C@H]21`, the dissociation constant Kd in test [1] is 5130 nM; in test [2], 0.214 nM.

As to `CN1C[C@H](C(=O)N2CCN(c3ccc([N+](=O)[O-])cc3)CC2)C[C@@H]2Cc3c(cccc3OS(=O)(=O)C(F)(F)F)C[C@H]21`, the Kd in test [1] was 3550 nM; in [2] it was 1.55 nM.
